Experimental data reported in the kinase profiling compilation of Christmann-Franck et al. (2016).

Columns and labels:
Assay in all cases: radiometric filter-binding kinase assay, Kinase HotSpot
Details in all cases: compound 0.5 µM; ATP 10 µM
ACVR1 (human) = ACVR1 (human) (UniProt Q04771)
AKT2 (human) = AKT2 (human) (UniProt P31751)
BLK (human) = BLK (human) (UniProt P51451)
CAMK4 (human) = CAMK4 (human) (UniProt Q16566)
CDK5 CDK5R1 p25 (human) = CDK5 CDK5R1 p25 (human) (UniProt Q00535+Q15078)
CLK4 (human) = CLK4 (human) (UniProt Q9HAZ1)
CSF1R (human) = CSF1R (human) (UniProt P07333)
CSNK1D (human) = CSNK1D (human) (UniProt P48730)
EPHB3 (human) = EPHB3 (human) (UniProt P54753)
EPHB4 (human) = EPHB4 (human) (UniProt P54760)
FES (human) = FES (human) (UniProt P07332)
FGFR1 (human) = FGFR1 (human) (UniProt P11362)
FGFR2 (human) = FGFR2 (human) (UniProt P21802)
IRAK4 (human) = IRAK4 (human) (UniProt Q9NWZ3)
KIT (human) = KIT (human) (UniProt P10721)
LTK (human) = LTK (human) (UniProt P29376)
MAP3K7 TAB1 (human) = MAP3K7 TAB1 (human) (UniProt O43318+Q15750)
MAPK1 (human) = MAPK1 (human) (UniProt P28482)
MAPK10 (human) = MAPK10 (human) (UniProt P53779)
MAPK3 (human) = MAPK3 (human) (UniProt P27361)
MARK3 (human) = MARK3 (human) (UniProt P27448)
MARK4 (human) = MARK4 (human) (UniProt Q96L34)
MST4 (human) = MST4 (human) (UniProt Q9P289)
PAK1 (human) = PAK1 (human) (UniProt Q13153)
PHKG2 (human) = PHKG2 (human) (UniProt P15735)
PLK2 (human) = PLK2 (human) (UniProt Q9NYY3)
PRKCZ (human) = PRKCZ (human) (UniProt Q05513)
PRKD2 (human) = PRKD2 (human) (UniProt Q9BZL6)
PRKD3 (human) = PRKD3 (human) (UniProt O94806)
PRKX (human) = PRKX (human) (UniProt P51817)
RAF1 (human) = RAF1 (human) (UniProt P04049)
ROCK2 (human) = ROCK2 (human) (UniProt O75116)
RPS6KA1 KD1 KD2 (human) = RPS6KA1 KD1 KD2 (human) (UniProt Q15418)
RPS6KA3 KD1 KD2 (human) = RPS6KA3 KD1 KD2 (human) (UniProt P51812)
RPS6KB2 (human) = RPS6KB2 (human) (UniProt Q9UBS0)
SIK2 (human) = SIK2 (human) (UniProt Q9H0K1)
SLK (human) = SLK (human) (UniProt Q9H2G2)
SRC (human) = SRC (human) (UniProt P12931)
STK24 (human) = STK24 (human) (UniProt Q9Y6E0)
TAOK2 (human) = TAOK2 (human) (UniProt Q9UL54)
TGFBR2 (human) = TGFBR2 (human) (UniProt P37173)
ULK2 (human) = ULK2 (human) (UniProt Q8IYT8)

Chain of FES (human) (P07332 whole entry, looked up): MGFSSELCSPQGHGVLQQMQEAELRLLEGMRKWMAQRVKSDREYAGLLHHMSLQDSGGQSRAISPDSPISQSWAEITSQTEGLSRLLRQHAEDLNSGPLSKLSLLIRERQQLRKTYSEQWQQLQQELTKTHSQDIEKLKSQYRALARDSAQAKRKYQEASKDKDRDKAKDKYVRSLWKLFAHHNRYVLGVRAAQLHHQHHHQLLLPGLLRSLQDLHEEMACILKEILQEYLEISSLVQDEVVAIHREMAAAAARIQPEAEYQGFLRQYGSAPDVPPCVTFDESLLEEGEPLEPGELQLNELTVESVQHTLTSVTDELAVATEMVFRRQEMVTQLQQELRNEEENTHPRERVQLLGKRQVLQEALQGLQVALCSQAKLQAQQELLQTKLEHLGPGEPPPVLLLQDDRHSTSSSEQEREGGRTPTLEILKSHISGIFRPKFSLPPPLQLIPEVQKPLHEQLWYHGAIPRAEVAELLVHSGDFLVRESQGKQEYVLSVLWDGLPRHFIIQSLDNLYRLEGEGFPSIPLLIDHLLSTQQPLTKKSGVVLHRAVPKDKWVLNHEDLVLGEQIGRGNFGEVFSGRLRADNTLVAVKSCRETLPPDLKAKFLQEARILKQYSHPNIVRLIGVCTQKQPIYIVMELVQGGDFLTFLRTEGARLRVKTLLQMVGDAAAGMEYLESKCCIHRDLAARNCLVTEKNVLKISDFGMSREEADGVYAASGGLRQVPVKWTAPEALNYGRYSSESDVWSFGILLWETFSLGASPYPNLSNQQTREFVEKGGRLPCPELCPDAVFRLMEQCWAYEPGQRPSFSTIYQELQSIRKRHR
Chain of RPS6KB2 (human) (Q9UBS0 whole entry, looked up): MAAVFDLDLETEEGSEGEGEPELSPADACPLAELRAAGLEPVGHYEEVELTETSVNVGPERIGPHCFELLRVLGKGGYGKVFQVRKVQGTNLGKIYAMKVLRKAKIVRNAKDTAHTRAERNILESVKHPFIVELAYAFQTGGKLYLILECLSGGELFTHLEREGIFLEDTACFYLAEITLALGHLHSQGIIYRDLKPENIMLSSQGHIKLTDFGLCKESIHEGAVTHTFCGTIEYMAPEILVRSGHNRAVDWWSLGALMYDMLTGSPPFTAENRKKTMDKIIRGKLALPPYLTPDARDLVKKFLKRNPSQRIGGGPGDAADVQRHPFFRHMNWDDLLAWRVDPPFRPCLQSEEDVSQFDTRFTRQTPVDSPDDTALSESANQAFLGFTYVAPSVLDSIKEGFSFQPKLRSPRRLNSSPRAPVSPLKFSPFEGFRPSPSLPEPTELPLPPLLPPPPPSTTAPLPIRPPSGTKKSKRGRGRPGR
Chain of RPS6KA1 KD1 KD2 (human) (Q15418 whole entry, looked up): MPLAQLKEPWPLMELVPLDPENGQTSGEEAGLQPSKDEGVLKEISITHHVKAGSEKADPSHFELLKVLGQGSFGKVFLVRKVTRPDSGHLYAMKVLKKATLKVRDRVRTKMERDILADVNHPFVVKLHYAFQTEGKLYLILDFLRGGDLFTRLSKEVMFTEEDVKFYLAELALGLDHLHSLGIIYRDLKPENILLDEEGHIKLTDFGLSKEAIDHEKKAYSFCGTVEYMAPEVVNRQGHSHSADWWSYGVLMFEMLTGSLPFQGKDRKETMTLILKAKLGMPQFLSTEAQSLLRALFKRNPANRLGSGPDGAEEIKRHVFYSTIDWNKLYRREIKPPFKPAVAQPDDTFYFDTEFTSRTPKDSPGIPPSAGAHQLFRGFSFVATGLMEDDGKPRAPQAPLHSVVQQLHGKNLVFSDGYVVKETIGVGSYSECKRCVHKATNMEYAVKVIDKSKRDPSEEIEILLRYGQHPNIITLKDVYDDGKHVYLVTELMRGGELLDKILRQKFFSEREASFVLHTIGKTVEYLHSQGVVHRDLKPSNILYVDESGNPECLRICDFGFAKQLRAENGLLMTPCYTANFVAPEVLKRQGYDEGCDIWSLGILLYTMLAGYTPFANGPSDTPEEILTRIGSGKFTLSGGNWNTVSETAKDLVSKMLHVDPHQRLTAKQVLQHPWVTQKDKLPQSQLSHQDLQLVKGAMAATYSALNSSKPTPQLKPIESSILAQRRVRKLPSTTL
Chain of SRC (human) (P12931 whole entry, looked up): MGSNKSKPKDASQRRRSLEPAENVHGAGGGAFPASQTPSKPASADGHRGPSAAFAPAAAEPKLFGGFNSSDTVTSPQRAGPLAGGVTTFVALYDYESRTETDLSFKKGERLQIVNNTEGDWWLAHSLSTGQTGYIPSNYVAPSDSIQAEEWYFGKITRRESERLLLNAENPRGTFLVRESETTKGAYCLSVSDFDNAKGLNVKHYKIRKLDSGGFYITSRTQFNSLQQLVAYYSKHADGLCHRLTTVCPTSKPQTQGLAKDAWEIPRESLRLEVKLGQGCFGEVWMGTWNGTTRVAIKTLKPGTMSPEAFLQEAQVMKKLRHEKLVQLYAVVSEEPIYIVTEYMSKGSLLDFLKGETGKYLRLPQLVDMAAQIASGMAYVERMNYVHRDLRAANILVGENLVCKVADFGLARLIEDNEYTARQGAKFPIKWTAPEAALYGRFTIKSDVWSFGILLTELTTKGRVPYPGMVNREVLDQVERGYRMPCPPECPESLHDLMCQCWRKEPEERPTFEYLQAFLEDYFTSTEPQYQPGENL
Chain of TAOK2 (human) (Q9UL54 whole entry, looked up): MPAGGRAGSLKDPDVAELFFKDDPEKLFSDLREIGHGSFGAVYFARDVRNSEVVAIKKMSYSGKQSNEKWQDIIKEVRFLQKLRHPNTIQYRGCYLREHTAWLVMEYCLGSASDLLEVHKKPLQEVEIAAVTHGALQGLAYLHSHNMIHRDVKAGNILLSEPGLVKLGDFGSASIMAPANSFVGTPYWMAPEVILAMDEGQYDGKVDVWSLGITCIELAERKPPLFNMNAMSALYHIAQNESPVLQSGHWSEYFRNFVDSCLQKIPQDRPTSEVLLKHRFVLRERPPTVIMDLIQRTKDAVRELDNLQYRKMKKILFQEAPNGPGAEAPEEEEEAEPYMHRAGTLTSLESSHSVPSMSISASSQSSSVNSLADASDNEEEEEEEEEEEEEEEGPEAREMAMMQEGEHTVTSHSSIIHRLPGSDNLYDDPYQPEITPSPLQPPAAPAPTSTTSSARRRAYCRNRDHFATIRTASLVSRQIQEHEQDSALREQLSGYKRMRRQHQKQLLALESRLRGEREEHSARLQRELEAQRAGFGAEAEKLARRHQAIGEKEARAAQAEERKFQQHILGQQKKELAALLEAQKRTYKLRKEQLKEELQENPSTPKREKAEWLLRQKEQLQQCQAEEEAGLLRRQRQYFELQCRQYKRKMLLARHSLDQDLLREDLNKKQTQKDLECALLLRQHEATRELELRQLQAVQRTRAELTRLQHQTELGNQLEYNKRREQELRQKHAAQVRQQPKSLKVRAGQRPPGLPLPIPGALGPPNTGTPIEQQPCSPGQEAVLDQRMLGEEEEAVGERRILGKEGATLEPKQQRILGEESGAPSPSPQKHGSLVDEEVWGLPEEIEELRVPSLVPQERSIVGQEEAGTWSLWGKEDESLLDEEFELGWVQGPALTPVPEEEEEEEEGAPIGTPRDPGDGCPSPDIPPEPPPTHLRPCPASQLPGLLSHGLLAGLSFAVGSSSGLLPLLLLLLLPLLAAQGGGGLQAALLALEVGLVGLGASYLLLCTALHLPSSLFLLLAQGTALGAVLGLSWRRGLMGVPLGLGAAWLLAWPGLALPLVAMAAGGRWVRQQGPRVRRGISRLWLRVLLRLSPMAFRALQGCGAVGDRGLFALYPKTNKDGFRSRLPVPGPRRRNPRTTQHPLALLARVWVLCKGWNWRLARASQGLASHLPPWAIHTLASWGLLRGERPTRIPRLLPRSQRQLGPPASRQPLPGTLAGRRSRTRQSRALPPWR
Chain of PRKD3 (human) (O94806 whole entry, looked up): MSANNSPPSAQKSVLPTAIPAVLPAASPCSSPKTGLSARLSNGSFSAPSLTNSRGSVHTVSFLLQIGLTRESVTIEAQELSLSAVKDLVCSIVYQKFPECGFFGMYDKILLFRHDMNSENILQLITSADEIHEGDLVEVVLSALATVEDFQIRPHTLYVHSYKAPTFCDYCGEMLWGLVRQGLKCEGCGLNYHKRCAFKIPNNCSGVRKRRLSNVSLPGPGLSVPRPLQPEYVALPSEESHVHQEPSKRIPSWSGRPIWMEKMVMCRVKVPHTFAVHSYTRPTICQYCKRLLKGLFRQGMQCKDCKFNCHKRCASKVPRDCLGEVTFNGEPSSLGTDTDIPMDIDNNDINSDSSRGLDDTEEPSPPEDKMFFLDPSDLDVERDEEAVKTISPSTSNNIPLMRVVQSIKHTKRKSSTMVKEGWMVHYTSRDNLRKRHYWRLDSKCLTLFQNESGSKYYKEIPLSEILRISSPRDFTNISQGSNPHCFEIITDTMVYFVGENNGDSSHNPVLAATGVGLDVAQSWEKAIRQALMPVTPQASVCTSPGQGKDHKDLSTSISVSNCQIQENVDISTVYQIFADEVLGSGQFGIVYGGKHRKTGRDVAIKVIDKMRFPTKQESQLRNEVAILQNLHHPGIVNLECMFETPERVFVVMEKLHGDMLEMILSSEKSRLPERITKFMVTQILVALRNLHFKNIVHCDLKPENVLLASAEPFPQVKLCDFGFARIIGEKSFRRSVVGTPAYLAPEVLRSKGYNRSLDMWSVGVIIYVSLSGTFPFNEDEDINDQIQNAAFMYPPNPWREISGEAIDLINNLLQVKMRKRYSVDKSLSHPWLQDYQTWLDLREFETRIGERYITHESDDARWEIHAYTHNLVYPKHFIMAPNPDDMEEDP
Chain of PRKX (human) (P51817 whole entry, looked up): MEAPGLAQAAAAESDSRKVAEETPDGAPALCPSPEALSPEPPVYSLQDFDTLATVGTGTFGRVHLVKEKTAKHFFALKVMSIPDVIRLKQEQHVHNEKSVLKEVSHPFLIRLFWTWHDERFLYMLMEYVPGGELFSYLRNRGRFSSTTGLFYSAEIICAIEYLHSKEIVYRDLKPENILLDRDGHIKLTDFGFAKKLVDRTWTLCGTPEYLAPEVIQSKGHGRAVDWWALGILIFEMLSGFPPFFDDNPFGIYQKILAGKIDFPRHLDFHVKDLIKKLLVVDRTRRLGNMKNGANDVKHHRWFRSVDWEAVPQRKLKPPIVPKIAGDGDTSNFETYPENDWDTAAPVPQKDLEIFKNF

SMILES: Nc1n[nH]c2nnc(-c3c(-c4ccccc4)nn4ccccc34)cc12
- residual activity (ACVR1 (human)): 107%
- residual activity (AKT2 (human)): 97.5%
- residual activity (BLK (human)): 98.1%
- residual activity (CAMK4 (human)): 94.2%
- residual activity (CDK5 CDK5R1 p25 (human)): 101%
- residual activity (CLK4 (human)): 101%
- residual activity (CSF1R (human)): 96.8%
- residual activity (CSNK1D (human)): 63.2%
- residual activity (EPHB3 (human)): 96.8%
- residual activity (EPHB4 (human)): 98.5%
- residual activity (FES (human)): 97.8%
- residual activity (FGFR1 (human)): 94.7%
- residual activity (FGFR2 (human)): 102%
- residual activity (IRAK4 (human)): 99.7%
- residual activity (KIT (human)): 97.1%
- residual activity (LTK (human)): 90.5%
- residual activity (MAP3K7 TAB1 (human)): 101%
- residual activity (MAPK1 (human)): 87.2%
- residual activity (MAPK10 (human)): 103%
- residual activity (MAPK3 (human)): 65.8%
- residual activity (MARK3 (human)): 99.3%
- residual activity (MARK4 (human)): 105%
- residual activity (MST4 (human)): 75.9%
- residual activity (PAK1 (human)): 91.9%
- residual activity (PHKG2 (human)): 82.6%
- residual activity (PLK2 (human)): 107%
- residual activity (PRKCZ (human)): 83.9%
- residual activity (PRKD2 (human)): 54.1%
- residual activity (PRKD3 (human)): 58.9%
- residual activity (PRKX (human)): 101%
- residual activity (RAF1 (human)): 95.6%
- residual activity (ROCK2 (human)): 89.6%
- residual activity (RPS6KA1 KD1 KD2 (human)): 95.1%
- residual activity (RPS6KA3 KD1 KD2 (human)): 98.7%
- residual activity (RPS6KB2 (human)): 104%
- residual activity (SIK2 (human)): 93.6%
- residual activity (SLK (human)): 94%
- residual activity (SRC (human)): 100%
- residual activity (STK24 (human)): 74.6%
- residual activity (TAOK2 (human)): 101%
- residual activity (TGFBR2 (human)): 112%
- residual activity (ULK2 (human)): 100%

SMILES: CSc1nc(-c2ccc(F)cc2)c(-c2ccnc(NC(C)c3ccccc3)c2)[nH]1 (centres undefined)
- residual activity (ACVR1 (human)): 89.3%
- residual activity (AKT2 (human)): 96.8%
- residual activity (BLK (human)): 110%
- residual activity (CAMK4 (human)): 106%
- residual activity (CDK5 CDK5R1 p25 (human)): 76.1%
- residual activity (CLK4 (human)): 79.2%
- residual activity (CSF1R (human)): 104%
- residual activity (CSNK1D (human)): 41.9%
- residual activity (EPHB3 (human)): 94%
- residual activity (EPHB4 (human)): 99.9%
- residual activity (FES (human)): 93.8%
- residual activity (FGFR1 (human)): 97.6%
- residual activity (FGFR2 (human)): 95.2%
- residual activity (IRAK4 (human)): 82.6%
- residual activity (KIT (human)): 92.4%
- residual activity (LTK (human)): 83.6%
- residual activity (MAP3K7 TAB1 (human)): 90.5%
- residual activity (MAPK1 (human)): 102%
- residual activity (MAPK10 (human)): 125%
- residual activity (MAPK3 (human)): 68%
- residual activity (MARK3 (human)): 100%
- residual activity (MARK4 (human)): 74.6%
- residual activity (MST4 (human)): 101%
- residual activity (PAK1 (human)): 97.7%
- residual activity (PHKG2 (human)): 125%
- residual activity (PLK2 (human)): 94.3%
- residual activity (PRKCZ (human)): 111%
- residual activity (PRKD2 (human)): 86.4%
- residual activity (PRKD3 (human)): 82%
- residual activity (PRKX (human)): 91.5%
- residual activity (RAF1 (human)): 88.9%
- residual activity (ROCK2 (human)): 95.3%
- residual activity (RPS6KA1 KD1 KD2 (human)): 99.4%
- residual activity (RPS6KA3 KD1 KD2 (human)): 91%
- residual activity (RPS6KB2 (human)): 92.8%
- residual activity (SIK2 (human)): 97.2%
- residual activity (SLK (human)): 104%
- residual activity (SRC (human)): 99%
- residual activity (STK24 (human)): 113%
- residual activity (TAOK2 (human)): 92.7%
- residual activity (TGFBR2 (human)): 96.5%
- residual activity (ULK2 (human)): 94.1%
